Measured values published in the supplement of paper PMC10331698.
± gives the standard deviation of the averaged measurements.

Key:
Experiment in all cases: level (log10 ratio to DMSO vehicle control); higher = higher biomarker level / cell amount than vehicle control
[1] = compound: O=C(Cl)C(F)(F)C(F)(F)C(F)(F)C(=O)Cl [Hexafluoroglutaryl chloride]; details: in DMSO
Procedure: (§1)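 BioMAP Diversity Plus panel of 12 human primary cell co-culture systems (3C, 4H, LPS, SAg, BT, BF4T, BE3C, CASM3C, HDF3CGF, KF3CT, MyoF, Mphg). Compounds were added 1 h before stimulation and left for 24 h (MyoF 48 h; BT 72 h for soluble read-outs or 6 d for IgG). Biomarkers were read by ELISA, cytotoxicity by SRB, PBMC viability and proliferation by Alamar Blue. Each well value was divided by the mean of 8 DMSO control wells on the same plate and log10 transformed; duplicate blinded samples were tested at 4 concentrations.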

[2] = compound: O=C(CC(=O)C(F)(F)C(F)(F)C(F)(F)F)c1cccs1 [(Perfluorobutyryl)-2-thenoylmethane]; details: in DMSO
Procedure: as §1

[3] = compound: OCC(F)(F)C(F)(F)C(F)(F)C(F)(F)C(F)(F)C(F)(F)C(F)(F)C(F)(F)C(F)(F)C(F)(F)C(F)(F)F [11:1 Fluorotelomer alcohol]; details: in DMSO
Procedure: as §1

[4] = compound: O=S(=O)(O)CCC(F)(F)C(F)(F)C(F)(F)C(F)(F)F [4:2 Fluorotelomer sulfonic acid]; details: in DMSO
Procedure: as §1

[5] = compound: OCC(F)(F)C(F)(F)C(F)(F)C(F)(F)C(F)(F)C(F)(F)F [6:1 Fluorotelomer alcohol]; details: in DMSO
Procedure: as §1

[6] = compound: FC(F)(I)C(F)(F)C(F)(F)C(F)(F)C(F)(F)C(F)(F)I [1,6-Diiodoperfluorohexane]; details: 6700 nM; in DMSO
Procedure: as §1

[7] = compound: O=S(=O)(OCC(F)(F)F)C(F)(F)C(F)(F)C(F)(F)C(F)(F)F [2,2,2-Trifluoroethyl perfluorobutanesulfonate]; details: in DMSO
Procedure: as §1

Test System | level (log10) ([1]; 6700 nM) | level (log10) ([1]; 20000 nM) | level (log10) ([1]; 60000 nM) | level (log10) ([2]; 6700 nM) | level (log10) ([2]; 20000 nM) | level (log10) ([3]; 1100 nM) | level (log10) ([3]; 3300 nM) | level (log10) ([3]; 10000 nM) | level (log10) ([4]; 6700 nM) | level (log10) ([4]; 20000 nM) | level (log10) ([4]; 60000 nM) | level (log10) ([5]; 6700 nM) | level (log10) ([5]; 20000 nM) | level (log10) ([5]; 60000 nM) | level (log10) [6] | level (log10) ([7]; 6700 nM) | level (log10) ([7]; 20000 nM) | level (log10) ([7]; 60000 nM)
CASM3C:CD142/Tissue Factor | -0.0245 ± 0.028 | -0.0635 ± 0.037 | -0.0395 ± 0.035 | -0.144 ± 0.013 | -0.105 ± 0.021 | -0.013 ± 0.02 | -0.0225 ± 0.016 | -0.038 ± 0.02 | -0.0115 ± 0.018 | 0.0115 ± 0.015 | 0.0095 ± 0.03 | 0.009 ± 0.017 | 0.0035 ± 0.0092 | -0.0315 ± 0.015 | 0.001 | 0.013 ± 0.011 | 0.0485 ± 0.0021 | 0.133 ± 0.052
CASM3C:CXCL9/MIG | 0.0055 ± 0.043 | -0.002 ± 0.04 | 0.0115 ± 0.1 | -0.0295 ± 0.018 | -0.0945 ± 0.077 | 0.0005 ± 0.0035 | -0.002 ± 0.0028 | 0.014 ± 0.021 | -0.04 ± 0.03 | -0.0225 ± 0.013 | 0.006 ± 0.033 | -0.003 ± 0.0014 | -0.0085 ± 0.0021 | -0.0305 ± 0.046 | -0.018 | -0.0035 ± 0.026 | -0.014 ± 0.047 | -0.072 ± 0.09
lMphg:CD62E/E-Selectin | -0.0295 ± 0.016 | 0.0025 ± 0.018 | -0.0365 ± 0.022 | -0.0485 ± 0.054 | -0.123 ± 0.034 | 0.0715 ± 0.011 | 0.084 ± 0.024 | 0.118 ± 0.012 | -0.0235 ± 0.033 | -0.0105 ± 0.061 | -0.0105 ± 0.011 | 0.009 ± 0.024 | -0.008 ± 0.011 | -0.002 ± 0.023 | 0.033 | 0.02 ± 0.031 | 0.0255 ± 0.033 | -0.0435 ± 0.0064
CASM3C:CD87/uPAR | -0.014 ± 0.045 | -0.0225 ± 0.012 | -0.015 ± 0.038 | -0.046 ± 0.018 | -0.0065 ± 0.005 | 0.0055 ± 0.025 | -0.004 ± 0.021 | 0.0085 ± 0.032 | 0 ± 0.027 | 0.0025 ± 0.0078 | -0.0165 ± 0.037 | -0.004 ± 0.0071 | -0.0245 ± 0.00071 | -0.026 ± 0.035 | 0.001 | -0.047 ± 0.064 | -0.0215 ± 0.059 | -0.048 ± 0.033
KF3CT:CXCL9/MIG | 0.0025 ± 0.011 | 0.0085 ± 0.011 | 0.008 ± 0.0085 | 0.0085 ± 0.0064 | 0.009 ± 0.0057 | 0.0015 ± 0.0035 | -0.004 | 0.005 ± 0.011 | 0.0005 ± 0.0021 | 0.004 ± 0.016 | 0.0105 ± 0.016 | -0.0025 ± 0.019 | -0.003 ± 0.016 | 0.0025 ± 0.0021 | -0.088 | 0.023 ± 0.021 | 0.0095 ± 0.028 | 0.0015 ± 0.053
CASM3C:HLA-DR | -0.0095 ± 0.0035 | -0.0025 ± 0.033 | 0.002 ± 0.0057 | -0.018 ± 0.0042 | -0.0365 ± 0.022 | 0.0075 ± 0.016 | 0.0015 ± 0.00071 | 0.0095 ± 0.0035 | 0.0045 ± 0.0064 | -0.017 ± 0.014 | -0.0115 ± 0.00071 | 0.0095 ± 0.0064 | 0.0135 ± 0.0021 | -0.0195 ± 0.035 | -0.006 | 0.0015 ± 0.0064 | -0.0015 ± 0.0064 | 0.0125 ± 0.005
CASM3C:SRB | -0.0045 ± 0.0021 | 0.007 ± 0.0042 | 0.0115 ± 0.016 | 0.0105 ± 0.0064 | -0.0125 ± 0.0078 | 0.0075 ± 0.005 | 0.0095 ± 0.0064 | 0.008 ± 0.0071 | -0.0045 ± 0.0064 | -0.013 ± 0.0028 | -0.001 ± 0.0028 | 0.008 | 0.003 ± 0.0057 | -0.04 ± 0.0042 | 0.002 | -0.006 | -0.005 ± 0.0028 | -0.0055 ± 0.0064
KF3CT:uPA | 0.003 ± 0.0099 | 0.0235 ± 0.00071 | 0.015 ± 0.014 | 0.021 ± 0.0014 | 0.0195 ± 0.005 | -0.0115 ± 0.015 | -0.0335 ± 0.00071 | -0.023 ± 0.016 | 0 ± 0.0042 | 0 ± 0.0028 | -0.0075 ± 0.028 | -0.0045 ± 0.0092 | -0.002 ± 0.018 | 0.0085 ± 0.025 | -0.002 | -0.0085 ± 0.0021 | -0.043 ± 0.079 | -0.075 ± 0.0042
MyoF:CXCL8/IL-8 | -0.017 ± 0.0071 | 0.014 ± 0.011 | 0.03 ± 0.0085 | -0.0155 ± 0.0078 | 0.016 ± 0.018 | -0.0155 ± 0.035 | -0.0145 ± 0.037 | 0 ± 0.04 | 0 ± 0.0028 | 0.003 ± 0.02 | -0.0055 ± 0.018 | -0.0055 ± 0.025 | -0.0095 ± 0.037 | -0.005 ± 0.025 | 0.153 | -0.003 ± 0.064 | 0.0405 ± 0.057 | 0.013 ± 0.09
CASM3C:CD106/VCAM-1 | -0.017 ± 0.03 | -0.013 ± 0.024 | 0.0025 ± 0.047 | -0.0225 ± 0.012 | -0.104 ± 0.028 | -0.004 ± 0.024 | 0 ± 0.023 | -0.0105 ± 0.019 | 0.0035 ± 0.0078 | -0.0285 ± 0.025 | -0.0325 ± 0.005 | -0.0075 ± 0.026 | -0.001 ± 0.024 | -0.074 ± 0.034 | -0.041 | -0.027 ± 0.014 | -0.038 ± 0.031 | -0.042 ± 0.083
HDF3CGF:CXCL8/IL-8 | 0.0025 ± 0.012 | -0.0015 ± 0.005 | 0.013 ± 0.018 | 0.01 ± 0.0014 | 0.015 ± 0.0071 | -0.002 ± 0.0057 | -0.007 | -0.001 | -0.011 ± 0.016 | -0.0025 ± 0.0021 | 0.007 ± 0.017 | 0.0005 ± 0.0092 | 0.001 ± 0.013 | -0.046 ± 0.052 | -0.276 | 0.003 ± 0.0071 | 0.001 ± 0.0071 | 0.0125 ± 0.0064
3C:CD54/ICAM-1 | 0.002 ± 0.0014 | -0.006 ± 0.013 | 0.0025 ± 0.035 | -0.027 ± 0.021 | -0.0365 ± 0.00071 | 0.011 ± 0.03 | 0.0305 ± 0.028 | 0.0385 ± 0.018 | 0.001 ± 0.0014 | -0.0125 ± 0.0021 | 0.0045 ± 0.012 | 0.004 | -0.001 ± 0.0071 | -0.0815 ± 0.12 | 0.03 | -0.006 ± 0.0028 | -0.0105 ± 0.0021 | -0.0095 ± 0.0064
MyoF:Decorin | -0.014 ± 0.016 | -0.0095 ± 0.026 | -0.006 ± 0.0099 | 0.0045 ± 0.011 | 0.0285 ± 0.022 | 0.0065 ± 0.028 | 0.013 ± 0.021 | 0.0255 ± 0.0021 | -0.0075 ± 0.0078 | -0.012 ± 0.0014 | 0.004 ± 0.0028 | 0.004 ± 0.0071 | 0.0075 ± 0.0092 | 0.0005 ± 0.023 | 0.021 | 0.0135 ± 0.066 | 0.027 ± 0.014 | 0.008 ± 0.052
KF3CT:CXCL10/IP-10 | -0.0105 ± 0.013 | 0.0045 ± 0.0035 | -0.0025 ± 0.015 | -0.0205 ± 0.00071 | -0.018 ± 0.0014 | 0.003 ± 0.0042 | -0.002 ± 0.0057 | 0.0085 ± 0.0035 | -0.007 ± 0.0028 | -0.0145 ± 0.011 | -0.0115 ± 0.0092 | 0.0155 ± 0.0035 | 0.0055 ± 0.015 | 0.011 | -0.005 | 0.0345 ± 0.022 | 0.033 ± 0.041 | 0.031 ± 0.042
HDF3CGF:PAI-I | -0.05 ± 0.073 | -0.0215 ± 0.083 | -0.0155 ± 0.043 | 0.0475 ± 0.052 | -0.0845 ± 0.046 | 0.037 ± 0.0014 | 0.0515 ± 0.012 | 0.029 ± 0.075 | 0.0085 ± 0.044 | -0.011 ± 0.014 | -0.02 ± 0.021 | 0.006 ± 0.018 | 0.0105 ± 0.026 | -0.103 ± 0.18 | -0.662 | -0.0125 ± 0.0092 | -0.02 ± 0.024 | -0.021 ± 0.0014
MyoF:SRB | 0 ± 0.011 | 0.003 ± 0.0028 | -0.003 ± 0.018 | -0.0225 ± 0.022 | -0.0395 ± 0.0035 | 0 ± 0.0042 | -0.0015 ± 0.012 | 0.0015 ± 0.016 | -0.004 ± 0.0071 | -0.0045 ± 0.0021 | -0.004 ± 0.0028 | 0.003 ± 0.02 | 0.0015 ± 0.016 | -0.089 ± 0.13 | -0.209 | 0.0005 ± 0.011 | -0.009 ± 0.014 | -0.0255 ± 0.021
